Test system: healthy females
Assay: Phase 1 FIH single ascending dose study: safety and tolerability (AEs)
Format: in vivo, human
Protocol: The study was a double-blind, randomized, placebo-controlled Phase 1 single ascending dose study in up to 6 cohorts in healthy females. Eligibility was assessed during a screening period of up to 28 days prior to enrollment. For the treatment period, subjects were admitted to the clinical research unit (CRU) one day prior to the dosing (Day −1). On Day 1, all subjects will received the assigned SC dose of RE104 HCl or placebo in a fed state (after domiciling overnight and consuming a planned evening meal on Day −1 and morning meal on Day 1 while at the CRU). Subjects were allowed to select snacks from a planned menu from 4 hours following dosing. Subjects were discharged from the clinic on Day 2 (−24 hours post-dose) after all required study procedures were completed and if deemed medically fit. Subjects returned to the clinic on Day 10 (±2 days) for a follow up visit.
Six (6) cohorts were enrolled in the study. Six (6) single doses were tested in 6 cohorts (Cohort 1 to Cohort 6) of 8 healthy female subjects (6 active and 2 placebo), as indicated in FIG. 1 and Table 3.
The starting dose was 5.5 mg RE104 HCl. Sentinels were used in all cohorts. Within each cohort, 2 subjects were treated first: 1 subject received RE104 HCl and 1 subject received placebo.
The study was monitored by a safety review committee (SRC). […] Safety, tolerability, and available PK data were assessed by the SRC between each cohort before ascending to the next dose level (Table 3). After each cohort dosing was complete, the SRC met to discuss dose escalation. Escalation to the next higher dose level occurred only after evaluation of the safety and tolerability data up to and including at least 24 hours post-dose of all evaluable subjects in the previous dose cohort. Available PK results were requested for determination of dose escalation, as deemed necessary.
Dosing took place at a time point agreed to with the investigational pharmacy and acceptable to the investigator. RE104 HCl or placebo were administered as a SC injection in the upper arm. Subjects received RE104 HCl or placebo in a fed state. The time of administration of RE104 HCl or placebo was be recorded in the eCRF. The regimen used is outlined in Table 3.
Within each cohort, 2 sentinel subjects were treated first: 1 subject received RE104 HCl and 1 subject received placebo. […] All drug administration was be done under direct medical supervision. Study subjects were overseen during the potentially psychoactive study drug period by professionals trained to monitor psychedelic experiences.

CC(C)N(CCc1c[nH]c2cccc(OC(=O)CCCC(=O)O)c12)C(C)C [RE104]
3 (33.3) n (%): AE Muscle twitching (RE104 33 mg, n = 9) | AE Nausea (RE104 33 mg, n = 9) | AE Restlessness (RE104 33 mg, n = 9)
4 (66.7) n (%): AE Headache (RE104 38 mg, n = 6)
115 beats per minute: sinus tachycardia, maximum recorded value (asymptomatic)
4 (44.4) n (%): AE Sinus tachycardia (RE104 33 mg, n = 9)
2 n (%): AE Agitation (RE104 44 mg, n = 3) | AE Nausea (RE104 44 mg, n = 3) | AE Sinus tachycardia (RE104 44 mg, n = 3)
3 (50.0) n (%): AE Restlessness (RE104 38 mg, n = 6) | AE Sinus tachycardia (RE104 38 mg, n = 6)
1 (11.1) n (%): AE Headache (RE104 33 mg, n = 9) | AE Musculoskeletal injury (RE104 33 mg, n = 9) | AE Tremor (RE104 33 mg, n = 9)
0 n (%): AE Abdominal pain (RE104 5.5 mg, n = 6) | AE Agitation (RE104 5.5 mg, n = 6) | AE Diarrhea (RE104 5.5 mg, n = 6) | AE Distress (RE104 5.5 mg, n = 6) | AE Fatigue (RE104 5.5 mg, n = 6) | AE Feeling hot (RE104 5.5 mg, n = 6) | AE Headache (RE104 5.5 mg, n = 6) | AE Heart rate increased (RE104 5.5 mg, n = 6) | AE Hyperhidrosis (RE104 5.5 mg, n = 6) | AE Muscle twitching (RE104 5.5 mg, n = 6) | AE Musculoskeletal injury (RE104 5.5 mg, n = 6) | AE Restlessness (RE104 5.5 mg, n = 6) | AE Sinus tachycardia (RE104 5.5 mg, n = 6) | AE Thirst (RE104 5.5 mg, n = 6) | AE Tremor (RE104 5.5 mg, n = 6) | AEs leading to (RE104 5.5 mg, n = 6) | Any SAE (RE104 5.5 mg, n = 6) | Severe AEs (RE104 5.5 mg, n = 6) | AE Abdominal pain (RE104 11 mg, n = 6) | AE Agitation (RE104 11 mg, n = 6) | AE Diarrhea (RE104 11 mg, n = 6) | AE Distress (RE104 11 mg, n = 6) | AE Fatigue (RE104 11 mg, n = 6) | AE Feeling hot (RE104 11 mg, n = 6) | AE Heart rate increased (RE104 11 mg, n = 6) | AE Hyperhidrosis (RE104 11 mg, n = 6) | AE Muscle twitching (RE104 11 mg, n = 6) | AE Musculoskeletal injury (RE104 11 mg, n = 6) | AE Restlessness (RE104 11 mg, n = 6) | AE Sinus tachycardia (RE104 11 mg, n = 6) | AE Thirst (RE104 11 mg, n = 6) | AE Tremor (RE104 11 mg, n = 6) | AE Vomiting (RE104 11 mg, n = 6) | AEs leading to (RE104 11 mg, n = 6) | Any SAE (RE104 11 mg, n = 6) | Severe AEs (RE104 11 mg, n = 6) | AE Abdominal pain (RE104 22 mg, n = 6) | AE Agitation (RE104 22 mg, n = 6) | AE Distress (RE104 22 mg, n = 6) | AE Fatigue (RE104 22 mg, n = 6) | AE Headache (RE104 22 mg, n = 6) | AE Muscle twitching (RE104 22 mg, n = 6) | AE Musculoskeletal injury (RE104 22 mg, n = 6) | AE Nausea (RE104 22 mg, n = 6) | AE Restlessness (RE104 22 mg, n = 6) | AE Sinus tachycardia (RE104 22 mg, n = 6) | AE Thirst (RE104 22 mg, n = 6) | AE Tremor (RE104 22 mg, n = 6) | AE Vomiting (RE104 22 mg, n = 6) | AEs leading to (RE104 22 mg, n = 6) | Any SAE (RE104 22 mg, n = 6) | Severe AEs (RE104 22 mg, n = 6) | AE Agitation (RE104 33 mg, n = 9) | AE Diarrhea (RE104 33 mg, n = 9) | AE Distress (RE104 33 mg, n = 9) | AE Feeling hot (RE104 33 mg, n = 9) | AE Heart rate increased (RE104 33 mg, n = 9) | AE Hyperhidrosis (RE104 33 mg, n = 9) | AE Thirst (RE104 33 mg, n = 9) | AE Vomiting (RE104 33 mg, n = 9) | AEs leading to (RE104 33 mg, n = 9) | Any SAE (RE104 33 mg, n = 9) | Severe AEs (RE104 33 mg, n = 9) | AE Abdominal pain (RE104 38 mg, n = 6) | AE Fatigue (RE104 38 mg, n = 6) | AE Feeling hot (RE104 38 mg, n = 6) | AE Heart rate increased (RE104 38 mg, n = 6) | AE Muscle twitching (RE104 38 mg, n = 6) | AE Musculoskeletal injury (RE104 38 mg, n = 6) | AE Tremor (RE104 38 mg, n = 6) | AE Vomiting (RE104 38 mg, n = 6) | AEs leading to (RE104 38 mg, n = 6) | Any SAE (RE104 38 mg, n = 6) | AE Abdominal pain (RE104 44 mg, n = 3) | AE Diarrhea (RE104 44 mg, n = 3) | AE Fatigue (RE104 44 mg, n = 3) | AE Feeling hot (RE104 44 mg, n = 3) | AE Headache (RE104 44 mg, n = 3) | AE Heart rate increased (RE104 44 mg, n = 3) | AE Muscle twitching (RE104 44 mg, n = 3) | AE Musculoskeletal injury (RE104 44 mg, n = 3) | AE Thirst (RE104 44 mg, n = 3) | AEs leading to (RE104 44 mg, n = 3) | Any SAE (RE104 44 mg, n = 3)
5 (83.3) n (%): Any AE (RE104 38 mg, n = 6)
2 (22.2) n (%): AE Abdominal pain (RE104 33 mg, n = 9) | AE Fatigue (RE104 33 mg, n = 9)
2 (33.3) n (%): Any AE (RE104 5.5 mg, n = 6) | AE Nausea (RE104 11 mg, n = 6) | Any AE (RE104 11 mg, n = 6) | Any AE (RE104 22 mg, n = 6) | AE Agitation (RE104 38 mg, n = 6) | AE Diarrhea (RE104 38 mg, n = 6) | AE Nausea (RE104 38 mg, n = 6) | AE Thirst (RE104 38 mg, n = 6)
8 (88.9) n (%): Any AE (RE104 33 mg, n = 9)
1 n (%): AE Distress (RE104 44 mg, n = 3) | AE Hyperhidrosis (RE104 44 mg, n = 3) | AE Restlessness (RE104 44 mg, n = 3) | AE Tremor (RE104 44 mg, n = 3) | AE Vomiting (RE104 44 mg, n = 3) | Severe AEs (RE104 44 mg, n = 3)
1 (16.7) n (%): AE Nausea (RE104 5.5 mg, n = 6) | AE Vomiting (RE104 5.5 mg, n = 6) | AE Headache (RE104 11 mg, n = 6) | AE Diarrhea (RE104 22 mg, n = 6) | AE Feeling hot (RE104 22 mg, n = 6) | AE Heart rate increased (RE104 22 mg, n = 6) | AE Hyperhidrosis (RE104 22 mg, n = 6) | AE Distress (RE104 38 mg, n = 6) | AE Hyperhidrosis (RE104 38 mg, n = 6) | Severe AEs (RE104 38 mg, n = 6)
3 n (%): Any AE (RE104 44 mg, n = 3)

— US20250319067A1, “Improved Pharmacokinetics of Tryptamine Prodrugs” (Reunion Neuroscience, Inc., priority 2023, published 2025)
